Results on 1 compound are retold here after US20240294465A1, “NOVEL ANTI-FIBROTIC DRUGS” (HELMHOLTZ ZENTRUM MUNCHEN - DEUTSCHES FORSCHUNGSZENTRUM FUR …, priority 2021, published 2024).

The structures appear in SMILES notation.

What all share (type): cell-based
Series [1] concerns TGFβ1-induced fibulin-1 ECM deposition in primary human lung IPF-fibroblasts (phLFs). The series is described as follows: Assessing N23P activity in inhibiting ECM deposition in IPF-fibroblasts (fibulin-1 MFI). The note with it: Homo sapiens, 72 h, 10 μM, TGFβ1 1 ng/ml, MFI, three different IPF-phLFs (n=3). The protocol: phLFs were cultured in DMEM F-12 medium with 20% fetal bovine serum (FBS) and antibiotic supplement as mentioned above. Cells were seeded with 6000 cells/well in 384-well CellCarrier plates (Perkin Elmer, Cat #6007550). Following overnight incubation, cells were starved in serum-reduced medium (1% FBS with 0.1 mM 2-phosphoascorbate (Sigma, Cat #49752)) for 24 h. Afterwards, cells were treated with TGFβ1 (1 ng/ml) or vehicle, and additionally small molecules or appropriate vehicle controls were added. After 72 h of incubation, medium was changed for starving medium with 1 μg/mL AlexaFluor-488 fluorophore conjugated anti-collagen-type-5 antibodies (SantaCruz, Clone C-5, Cat #sc-166155 AF488), 0.66 μg/mL AlexaFluor-555 fluorophore conjugated anti-collagen-type-1 antibodies (Rockland, Cat #600-401-103-0.1), and 1 μg/mL AlexaFluor-637 fluorophore conjugated anti-fibulin 1 antibodies (SantaCruz, Clone C-5, Cat #sc-25281 AF647) and 1 μg/mL Hoechst H33342 (Sigma). Fluorescenceconjugation of the collagen type 1 antibody was done by using the AlexaFluor-555 Protein Labeling Kit (Invitrogen, Cat #A20174) according to manufacturer's instructions. Labeling efficacy was controlled by photometrical means.
Following four hours of incubation, cells were washed three times with PBS and fixed with paraformaldehyde (PFA). For automated liquid handling in 384 well plates, an INTEGRA Assist Plus (INTEGRA, Zizers, Switzerland) equipped with an INTEGRA Viaflo 1I pipette (INTEGRA, Zizers, Switzerland, Cat #4642), 125 μL GripTips™ pipette tips (INTEGRA, Zizers, Switzerland, Cat #6464) and sterile reagent reservoirs (INTEGRA, Cat #4311) were applied. All automated pipetting steps with the INTEGRA Assist Plus were performed at 9.5 μL/s in order to ensure proper integrity and attachment of the deposited ECM to the culturing surface within the wells of the 384-well plates. During cell seeding the automated liquid handling was performed at 89.3 μL/s. Removal of liquids from the well-plates was done by manually inverting the plates.
Following fixation, the automated imaging was achieved by using aconfocal laser scanning microscope (LSM710, Zeiss) with automated focus detection for three-dimensional image acquisition (1024 px×1024 px×9 px which equals a dimension of 1417 μm×1417 μm×16 μm). For post-acquisition analysis images were imported into IMARIS software (Bitplane) and volume detection or alternatively quantification of the mean fluorescence intensity, as well as Hoechst-stained cell nuclei were automatically counted by using Imaris' spot detection algorithm.
Cells were seeded with 6000 cells/well in 384-well CellCarrier plates. After overnight incubation, cells were starved in serum-reduced medium (1% FBS with 0.1 mM 2-phosphoascorbate for 24 h). Then, phLFs were treated with TGFβ1 (1 ng/ml) or vehicle, and incubated together with synthesized N23Ps (10 μM) or appropriate vehicle controls. After 72 h of incubation, medium was changed for starvation medium with 1 μg/mL AlexaFluor-637 fluorophore conjugated anti-fibulin 1 antibodies (SantaCruz, Clone C-5, Cat #sc-25281 AF647) and 1 μg/mL Hoechst H33342 (Sigma). Following four hours of incubation, cells were washed three times with PBS and fixed with paraformaldehyde (PFA). Following fixation, the automated imaging was achieved by using a confocal laser scanning microscope (LSM710, Zeiss) with automated focus detection for three-dimensional image acquisition (1024 px×1024 px×9 px which equals a dimension of 1417 μm×1417 μm×16 μm). For post-acquisition analysis images were imported into IMARIS software (Bitplane) and quantified for the mean fluorescence intensity, as well as Hoechst-stained cell nuclei were automatically counted by using Imaris' spot detection algorithm.
Assessment of ECM inhibition I: Mean fluorescence intensity (MFI) values represented the degree of fibulin-1 ECM deposition in three different IPF-phLFs (n=3). […]

A further series relates to PAI-1/SERPINE1. Nature of the series: Human precision cut lung slices (PCLS) with fibrotic cocktail: immunoblot of secreted PAI-1. The note with it: living human PCLS. The procedure: PCLS were prepared as described before (31, 32). Shortly, PCLS were prepared from tumor-free peri-tumor tissue. The lung tissue was inflated with 3% agarose solution and solidified at 4° C. Tissue blocks were cut in μm thick PCLS using a vibration microtome Hyrax V50 (Zeiss). PCLS were cultured in DMEM F-12 medium and treated with a profibrotic cocktail, as described before (31), or vehicle, as well as with small molecules or vehicles for 7 days. After culturing and treatments, supernatants were harvested. PCLS were […] washed in PBS and protein was extracted as previously described (33). Briefly, PCLS were pooled in an Eppendorf tube and lysed in 500 μl ice-cold RIPA buffer (50 mM Tris-CI pH 7.4, 150 mM NaCl, 1% NP40, 0.25% Na-deoxycholate) containing 1× Roche complete mini protease inhibitor cocktail (Roche, Cat. #11697498001). After an incubation of 2 hours rotating at 4° C., the lung slices were removed from the lysates and the protein content was measured.
Cells were scraped off the plastic dish directly into 200 μl ice-cold RIPA buffer containing 1× Roche complete mini protease inhibitor cocktail. […] CXCL/IL-8 concentrations were determined using Human IL-8/CXCL8 DuoSet ELISA (DY208-05) according to the manufacturer's protocol.

Series [2] has as its system human lung organoids derived from human lung progenitor cells. Nature of the series: Human lung organoid growth (colony formation efficiency). Conditions: 10 μM, 14 days in culture.

In series [1], `CCCCOc1ccccc1NC(=O)/C=C/c1ccc(OC)c(OC)c1` [Example 84, (E)-N-(2-butoxyphenyl)-3-(3,4-dimethoxyphenyl)acrylamide] gave an inhibition at 10 µM greater than 90%. Also, in the series with PAI-1/SERPINE1, the “secreted PAI-1/SERPINE1” value is on record as “diminution of secreted pro-fibrotic PAI-1/SERPINE1”. Moreover, in series [2], the organoid growth entry is given as “inhibited organoid growth” and the “viability of lung progenitor cells (calcein / ethidium homodimer III)” value is recorded as “many lung progenitor cells are still viable”.
